Measurements taken from patent US20240415914A1, “Water Dispersible Cannabinoid Compositions” (priority 2021, published 2024).
Read-outs that look alike come from different tables or passages of the source.

Key:
[1] = Stability of cannabinoid and Vitamin E components of Beverage 2 (AB Red) stored at 8° C. and 21-25° C., LCMSMS over 570 days
Protocol: The LCMSMS was calibrated for 0-50 ng/ml cannabinoids with the same resin material used in the preparation of the concentrates. At each time period, 100 μml of beverage was diluted with 10 ml of methanol and injected into the LCMSMS for analysis.

[2] = format: physicochemical; conditions: stored at room temperature (21-25° C.)
Protocol: At each time period, 0.05 g of powder was dissolved in 10 ml-15 of ethanol, diluted to fall within the analytical range, and injected into the LCMSMS for analysis.

## CC(=O)Oc1c(C)c(C)c2c(c1C)CCC(C)(CCC[C@H](C)CCC[C@H](C)CCCC(C)C)O2 (stereo partly drawn) [α-Tocopheryl acetate]
[1]; 8° C., 0 days
  Stability of Vitamin Es in AB Red: 12.5 µg/mL
[1]; 8° C., 1 days
  Stability of Vitamin Es in AB Red: 11.6 µg/mL
[1]; 8° C., 2 days
  Stability of Vitamin Es in AB Red: 11.5 µg/mL
[1]; 8° C., 3 days
  Stability of Vitamin Es in AB Red: 11.6 µg/mL
[1]; 8° C., 5 days
  Stability of Vitamin Es in AB Red: 12.3 µg/mL
[1]; 8° C., 8 days
  Stability of Vitamin Es in AB Red: 12.2 µg/mL
[1]; 8° C., 9 days
  Stability of Vitamin Es in AB Red: 12.1 µg/mL
[1]; 8° C., 10 days
  Stability of Vitamin Es in AB Red: 12.6 µg/mL
[1]; 8° C., 11 days
  Stability of Vitamin Es in AB Red: 11.9 µg/mL
[1]; 8° C., 12 days
  Stability of Vitamin Es in AB Red: 12.4 µg/mL
[1]; 8° C., 15 days
  Stability of Vitamin Es in AB Red: 12.0 µg/mL
[1]; 8° C., 16 days
  Stability of Vitamin Es in AB Red: 11.5 µg/mL
[1]; 8° C., 17 days
  Stability of Vitamin Es in AB Red: 11.8 µg/mL
[1]; 8° C., 18 days
  Stability of Vitamin Es in AB Red: 12.5 µg/mL
[1]; 8° C., 19 days
  Stability of Vitamin Es in AB Red: 12.5 µg/mL
[1]; 8° C., 22 days
  Stability of Vitamin Es in AB Red: 12.5 µg/mL
[1]; 8° C., 23 days
  Stability of Vitamin Es in AB Red: 11.9 µg/mL
[1]; 8° C., 24 days
  Stability of Vitamin Es in AB Red: 12.6 µg/mL
[1]; 8° C., 25 days
  Stability of Vitamin Es in AB Red: 12.3 µg/mL
[1]; 8° C., 26 days
  Stability of Vitamin Es in AB Red: 11.6 µg/mL
[1]; 8° C., 29 days
  Stability of Vitamin Es in AB Red: 11.7 µg/mL
[1]; 8° C., 30 days
  Stability of Vitamin Es in AB Red: 12.1 µg/mL
[1]; 8° C., 60 days
  Stability of Vitamin Es in AB Red: 11.4 µg/mL
[1]; 8° C., 90 days
  Stability of Vitamin Es in AB Red: 11.6 µg/mL
[1]; 8° C., 120 days
  Stability of Vitamin Es in AB Red: 11.7 µg/mL
[1]; 8° C., 150 days
  Stability of Vitamin Es in AB Red: 12.3 µg/mL
[1]; 8° C., 180 days
  Stability of Vitamin Es in AB Red: 12.6 µg/mL
[1]; 8° C., 210 days
  Stability of Vitamin Es in AB Red: 11.8 µg/mL
[1]; 8° C., 240 days
  Stability of Vitamin Es in AB Red: 11.2 µg/mL
[1]; 8° C., 270 days
  Stability of Vitamin Es in AB Red: 11.6 µg/mL
[1]; 8° C., 300 days
  Stability of Vitamin Es in AB Red: 11.2 µg/mL
[1]; 8° C., 330 days
  Stability of Vitamin Es in AB Red: 11.3 µg/mL
[1]; 8° C., 390 days
  Stability of Vitamin Es in AB Red: 11.4 µg/mL
[1]; 8° C., 420 days
  Stability of Vitamin Es in AB Red: 11.2 µg/mL
[1]; 8° C., 450 days
  Stability of Vitamin Es in AB Red: 11.4 µg/mL
[1]; 8° C., 480 days
  Stability of Vitamin Es in AB Red: 10.7 µg/mL
[1]; 8° C., 510 days
  Stability of Vitamin Es in AB Red: 10.6 µg/mL
[1]; 8° C., 540 days
  Stability of Vitamin Es in AB Red: 10.8 µg/mL
[1]; 8° C., 570 days
  Stability of Vitamin Es in AB Red: 10.8 µg/mL
[1]; 21-25° C., 0 days
  Stability of Vitamin Es in AB Red: 12.5 µg/mL
[1]; 21-25° C., 1 days
  Stability of Vitamin Es in AB Red: 12.1 µg/mL
[1]; 21-25° C., 2 days
  Stability of Vitamin Es in AB Red: 12.5 µg/mL
[1]; 21-25° C., 3 days
  Stability of Vitamin Es in AB Red: 11.7 µg/mL
[1]; 21-25° C., 5 days
  Stability of Vitamin Es in AB Red: 12.2 µg/mL
[1]; 21-25° C., 8 days
  Stability of Vitamin Es in AB Red: 11.4 µg/mL
[1]; 21-25° C., 9 days
  Stability of Vitamin Es in AB Red: 11.6 µg/mL
[1]; 21-25° C., 10 days
  Stability of Vitamin Es in AB Red: 12.5 µg/mL
[1]; 21-25° C., 11 days
  Stability of Vitamin Es in AB Red: 12.3 µg/mL
[1]; 21-25° C., 12 days
  Stability of Vitamin Es in AB Red: 12.3 µg/mL
[1]; 21-25° C., 15 days
  Stability of Vitamin Es in AB Red: 12.1 µg/mL
[1]; 21-25° C., 16 days
  Stability of Vitamin Es in AB Red: 12.1 µg/mL
[1]; 21-25° C., 17 days
  Stability of Vitamin Es in AB Red: 11.3 µg/mL
[1]; 21-25° C., 18 days
  Stability of Vitamin Es in AB Red: 12.0 µg/mL
[1]; 21-25° C., 19 days
  Stability of Vitamin Es in AB Red: 12.0 µg/mL
[1]; 21-25° C., 22 days
  Stability of Vitamin Es in AB Red: 12.1 µg/mL
[1]; 21-25° C., 23 days
  Stability of Vitamin Es in AB Red: 11.7 µg/mL
[1]; 21-25° C., 24 days
  Stability of Vitamin Es in AB Red: 11.5 µg/mL
[1]; 21-25° C., 25 days
  Stability of Vitamin Es in AB Red: 12.4 µg/mL
[1]; 21-25° C., 26 days
  Stability of Vitamin Es in AB Red: 12.0 µg/mL
[1]; 21-25° C., 29 days
  Stability of Vitamin Es in AB Red: 11.9 µg/mL
[1]; 21-25° C., 30 days
  Stability of Vitamin Es in AB Red: 12.6 µg/mL
[1]; 21-25° C., 60 days
  Stability of Vitamin Es in AB Red: 11.6 µg/mL
[1]; 21-25° C., 90 days
  Stability of Vitamin Es in AB Red: 12.3 µg/mL
[1]; 21-25° C., 120 days
  Stability of Vitamin Es in AB Red: 12.3 µg/mL
[1]; 21-25° C., 150 days
  Stability of Vitamin Es in AB Red: 11.4 µg/mL
[1]; 21-25° C., 180 days
  Stability of Vitamin Es in AB Red: 12.0 µg/mL
[1]; 21-25° C., 210 days
  Stability of Vitamin Es in AB Red: 11.6 µg/mL
[1]; 21-25° C., 240 days
  Stability of Vitamin Es in AB Red: 11.3 µg/mL
[1]; 21-25° C., 270 days
  Stability of Vitamin Es in AB Red: 11.4 µg/mL
[1]; 21-25° C., 300 days
  Stability of Vitamin Es in AB Red: 11.2 µg/mL
[1]; 21-25° C., 330 days
  Stability of Vitamin Es in AB Red: 11.6 µg/mL
[1]; 21-25° C., 390 days
  Stability of Vitamin Es in AB Red: 11.3 µg/mL
[1]; 21-25° C., 420 days
  Stability of Vitamin Es in AB Red: 11.3 µg/mL
[1]; 21-25° C., 450 days
  Stability of Vitamin Es in AB Red: 11.2 µg/mL
[1]; 21-25° C., 480 days
  Stability of Vitamin Es in AB Red: 10.4 µg/mL
[1]; 21-25° C., 510 days
  Stability of Vitamin Es in AB Red: 10.4 µg/mL
[1]; 21-25° C., 540 days
  Stability of Vitamin Es in AB Red: 10.6 µg/mL
[1]; 21-25° C., 570 days
  Stability of Vitamin Es in AB Red: 10.6 µg/mL
[2]; day 0
  Stability in Powder Concentrate (content by LCMSMS): 2.15 mg/g powder
[2]; day 1
  Stability in Powder Concentrate (content by LCMSMS): 2.19 mg/g powder
[2]; day 2
  Stability in Powder Concentrate (content by LCMSMS): 2.11 mg/g powder
[2]; day 3
  Stability in Powder Concentrate (content by LCMSMS): 2.18 mg/g powder
[2]; day 5
  Stability in Powder Concentrate (content by LCMSMS): 2.24 mg/g powder
[2]; day 8
  Stability in Powder Concentrate (content by LCMSMS): 2.23 mg/g powder
[2]; day 9
  Stability in Powder Concentrate (content by LCMSMS): 2.09 mg/g powder
[2]; day 10
  Stability in Powder Concentrate (content by LCMSMS): 2.09 mg/g powder
[2]; day 11
  Stability in Powder Concentrate (content by LCMSMS): 2.20 mg/g powder
[2]; day 12
  Stability in Powder Concentrate (content by LCMSMS): 2.17 mg/g powder
[2]; day 15
  Stability in Powder Concentrate (content by LCMSMS): 2.24 mg/g powder
[2]; day 16
  Stability in Powder Concentrate (content by LCMSMS): 2.15 mg/g powder
[2]; day 17
  Stability in Powder Concentrate (content by LCMSMS): 2.13 mg/g powder
[2]; day 18
  Stability in Powder Concentrate (content by LCMSMS): 2.10 mg/g powder
[2]; day 19
  Stability in Powder Concentrate (content by LCMSMS): 2.21 mg/g powder
[2]; day 22
  Stability in Powder Concentrate (content by LCMSMS): 2.11 mg/g powder
[2]; day 23
  Stability in Powder Concentrate (content by LCMSMS): 2.16 mg/g powder
[2]; day 24
  Stability in Powder Concentrate (content by LCMSMS): 2.09 mg/g powder
[2]; day 25
  Stability in Powder Concentrate (content by LCMSMS): 2.24 mg/g powder
[2]; day 26
  Stability in Powder Concentrate (content by LCMSMS): 2.10 mg/g powder
[2]; day 29
  Stability in Powder Concentrate (content by LCMSMS): 2.21 mg/g powder
[2]; day 30
  Stability in Powder Concentrate (content by LCMSMS): 2.08 mg/g powder
[2]; day 60
  Stability in Powder Concentrate (content by LCMSMS): 2.15 mg/g powder
[2]; day 90
  Stability in Powder Concentrate (content by LCMSMS): 2.24 mg/g powder
[2]; day 120
  Stability in Powder Concentrate (content by LCMSMS): 2.17 mg/g powder
[2]; day 150
  Stability in Powder Concentrate (content by LCMSMS): 2.18 mg/g powder
[2]; day 180
  Stability in Powder Concentrate (content by LCMSMS): 2.20 mg/g powder
[2]; day 210
  Stability in Powder Concentrate (content by LCMSMS): 2.15 mg/g powder
[2]; day 240
  Stability in Powder Concentrate (content by LCMSMS): 2.23 mg/g powder
[2]; day 270
  Stability in Powder Concentrate (content by LCMSMS): 2.13 mg/g powder
[2]; day 300
  Stability in Powder Concentrate (content by LCMSMS): 2.09 mg/g powder
[2]; day 330
  Stability in Powder Concentrate (content by LCMSMS): 2.15 mg/g powder
[2]; day 360
  Stability in Powder Concentrate (content by LCMSMS): 2.12 mg/g powder
[2]; day 390
  Stability in Powder Concentrate (content by LCMSMS): 2.21 mg/g powder
[2]; day 420
  Stability in Powder Concentrate (content by LCMSMS): 2.21 mg/g powder
[2]; day 450
  Stability in Powder Concentrate (content by LCMSMS): 2.07 mg/g powder
[2]; day 480
  Stability in Powder Concentrate (content by LCMSMS): 2.10 mg/g powder
[2]; day 510
  Stability in Powder Concentrate (content by LCMSMS): 2.15 mg/g powder
[2]; day 540
  Stability in Powder Concentrate (content by LCMSMS): 2.21 mg/g powder
[2]; day 570
  Stability in Powder Concentrate (content by LCMSMS): 2.13 mg/g powder
